Experimental data from ChEMBL document CHEMBL5329153, “Is structural hybridization invoking new dimensions for antimalarial drug discovery research?” (RSC Med Chem, 2023).
≈ marks a conversion by molar mass, not a printed value.

Legend:
Assay type in all cases: functional, organism-based
Plasmodium falciparum [1] = assay: Antimalarial activity against Chloroquine sensitive Plasmodium falciparum D6 assessed as parasitic growth inhibition
Plasmodium falciparum [2] = assay: Antimalarial activity against Chloroquine resistant Plasmodium falciparum W2 assessed as parasitic growth inhibition
Plasmodium falciparum [3] = assay: Antimalarial activity against Plasmodium falciparum 3D7 assessed as parasitic growth inhibition
Plasmodium falciparum [4] = assay: Antimalarial activity against Plasmodium falciparum K1 assessed as parasitic growth inhibition
Plasmodium falciparum [5] = assay: Antimalarial activity against Plasmodium falciparum Dd2 assessed as parasitic growth inhibition

Structure (SMILES) | IC50 (Plasmodium falciparum [1]) [µM] | IC50 (Plasmodium falciparum [2]) [µM] | EC50 (Plasmodium falciparum [3]) [µM] | EC50 (Plasmodium falciparum [4]) [µM] | EC50 (Plasmodium falciparum [5]) [µM] | IC50 (Plasmodium falciparum [3]) [µg/mL]
O=C(c1ccc(Nc2nccc(NCCCCNc3ccnc4cc(Cl)ccc34)n2)cc1)N1CCOCC1 | 0.032 | 0.033 |  |  |  | 
C[C@H]1[C@@H](OCc2cn(-c3cccc4cc(Cl)ccc34)nn2)O[C@@H]2O[C@]3(C)CC[C@H]4[C@H](C)CC[C@@H]1[C@@]24OO3 |  |  | 0.009 | 0.0043 | 0.0059 | 
C[C@H]1[C@H](OC(=O)CCC(=O)OCCCc2cn(-c3ccnc4cc(Cl)ccc34)nn2)O[C@@H]2O[C@]3(C)CC[C@H]4[C@H](C)CC[C@@H]1[C@@]24OO3 |  |  | 0.0054 | 0.0024 | 0.0046 | 
Cc1cc(NCCCCCCNc2ccnc3cc(Cl)ccc23)nc(Nc2ccc(C(=O)N3CCCCC3)cc2)n1 | 0.032 | 0.033 |  |  |  | 
Cc1cc(NCCNc2ccnc3cc(Cl)ccc23)nc(Nc2ccc(C(=O)N3CCCC3)cc2)n1 | 0.032 | 0.033 |  |  |  | 
Cc1cc(NCCNc2ccnc3cc(Cl)ccc23)nc(Nc2ccc(C(=O)N3CCOCC3)cc2)n1 | 0.032 | 0.033 |  |  |  | 
Cc1cc(Nc2ccc(C(=O)N3CCSCC3)cc2)nc(NCCCNc2ccnc3cc(Cl)ccc23)n1 | 0.032 | 0.033 |  |  |  | 
Cc1cc(NCCCNc2ccnc3cc(Cl)ccc23)nc(Nc2ccc(C(=O)N3CCCC3)cc2)n1 | 0.032 | 0.033 |  |  |  | 
Cc1cc(NCCCCNc2ccnc3cc(Cl)ccc23)nc(Nc2ccc(C(=O)N3CCSCC3)cc2)n1 | 0.032 | 0.033 |  |  |  | 
O=C(c1ccc(Nc2nccc(NCCCCNc3ccnc4cc(Cl)ccc34)n2)cc1)N1CCSCC1 | 0.032 | 0.033 |  |  |  | 
C#CCCCC(C(=O)NCCOC(=O)CCC(=O)O[C@@H]1O[C@@H]2O[C@]3(C)CC[C@H]4[C@H](C)CC[C@@H]([C@H]1C)[C@@]24OO3)c1ccnc2cc(Cl)ccc12 (stereo partly specified) |  |  | 0.006 | 0.0022 | 0.0048 | 
Cc1cc(Nc2ccc(C(=O)N3CCCCC3)cc2)nc(NCCCCNc2ccnc3cc(Cl)ccc23)n1 | 0.032 | 0.033 |  |  |  | 
Cc1cc(NCCNc2ccnc3cc(Cl)ccc23)nc(Nc2ccc(C(=O)N3CCCCC3)cc2)n1 | 0.032 | 0.033 |  |  |  | 
Cc1cc(Nc2ccc(C(=O)N3CCCC3)cc2)nc(NCCCNc2ccnc3cc(Cl)ccc23)n1 | 0.032 | 0.033 |  |  |  | 
C[C@H]1[C@H](OC(=O)CCC(=O)OCCc2cn(-c3ccnc4cc(Cl)ccc34)nn2)O[C@@H]2O[C@]3(C)CC[C@H]4[C@H](C)CC[C@@H]1[C@@]24OO3 |  |  | 0.008 | 0.0026 | 0.0049 | 
O=C(c1ccc(Nc2nccc(NCCCNc3ccnc4cc(Cl)ccc34)n2)cc1)N1CCCCC1 | 0.032 | 0.033 |  |  |  | 
Cc1cc(NCCCCNc2ccnc3cc(Cl)ccc23)nc(Nc2ccc(C(=O)N3CCCC3)cc2)n1 | 0.032 | 0.033 |  |  |  | 
Cc1cc(NCCNc2ccnc3cc(Cl)ccc23)nc(Nc2ccc(C(=O)N3CCSCC3)cc2)n1 | 0.032 | 0.033 |  |  |  | 
C[C@H]1[C@H](OC(=O)CCC(=O)OCCNc2ccnc3cc(Cl)ccc23)O[C@@H]2O[C@]3(C)CC[C@H]4[C@H](C)CC[C@@H]1[C@@]24OO3 |  |  | 0.0045 | 0.0017 | 0.0023 | 
Cc1cc(Nc2ccc(C(=O)N3CCCC3)cc2)nc(NCCCCNc2ccnc3cc(Cl)ccc23)n1 | 0.032 | 0.033 |  |  |  | 
Cc1cc(NCCCNc2ccnc3cc(Cl)ccc23)nc(Nc2ccc(C(=O)N3CCOCC3)cc2)n1 | 0.032 | 0.033 |  |  |  | 
Cc1cc(Nc2ccc(C(=O)N3CCCCC3)cc2)nc(NCCCNc2ccnc3cc(Cl)ccc23)n1 | 0.032 | 0.033 |  |  |  | 

Structure (SMILES) | IC50 (Plasmodium falciparum [1]) [µM] | IC50 (Plasmodium falciparum [2]) [µM] | EC50 (Plasmodium falciparum [3]) [µM] | EC50 (Plasmodium falciparum [4]) [µM] | EC50 (Plasmodium falciparum [5]) [µM] | IC50 (Plasmodium falciparum [3]) [µg/mL]
CCCCc1nc(C)c2ccc(-c3cn(CCOC(=O)CCC(=O)O[C@@H]4O[C@@H]5O[C@]6(C)CC[C@H]7[C@H](C)CC[C@@H]([C@H]4C)[C@@]57OO6)nn3)cc2c1CCCC |  |  | 0.0092 | 0.0042 | 0.01 | 
Cc1cc(NCCCCCCNc2ccnc3cc(Cl)ccc23)nc(Nc2ccc(C(=O)N3CCCC3)cc2)n1 | 0.032 | 0.033 |  |  |  | 
CN(C)c1nc(N)nc(NCCNc2ccnc3cc(Cl)ccc23)n1 |  |  |  |  |  | 46.3 (≈ 129 µM)
O=C(c1ccc(Nc2nccc(NCCCCNc3ccnc4cc(Cl)ccc34)n2)cc1)N1CCCCC1 | 0.032 | 0.033 |  |  |  | 
C[C@H]1[C@H](OC(=O)CCC(=O)OCCCCc2cn(-c3ccnc4cc(Cl)ccc34)nn2)O[C@@H]2O[C@]3(C)CC[C@H]4[C@H](C)CC[C@@H]1[C@@]24OO3 |  |  | 0.0062 | 0.0025 | 0.0044 | 
Cc1cc(NCCCCNc2ccnc3cc(Cl)ccc23)nc(Nc2ccc(C(=O)N3CCCCC3)cc2)n1 | 0.032 | 0.033 |  |  |  | 
Cc1cc(NCCCNc2ccnc3cc(Cl)ccc23)nc(Nc2ccc(C(=O)N3CCSCC3)cc2)n1 | 0.032 | 0.033 |  |  |  | 
Cc1cc(Nc2ccc(C(=O)N3CCOCC3)cc2)nc(NCCCNc2ccnc3cc(Cl)ccc23)n1 | 0.032 | 0.033 |  |  |  | 
Cc1cc(Nc2ccc(C(=O)N3CCOCC3)cc2)nc(NCCCCNc2ccnc3cc(Cl)ccc23)n1 | 0.032 | 0.033 |  |  |  | 
Cc1cc(NCCCCCCNc2ccnc3cc(Cl)ccc23)nc(Nc2ccc(C(=O)N3CCSCC3)cc2)n1 | 0.032 | 0.033 |  |  |  | 
O=C(c1ccc(Nc2nccc(NCCCNc3ccnc4cc(Cl)ccc34)n2)cc1)N1CCSCC1 | 0.032 | 0.033 |  |  |  | 
C[C@H]1[C@H](OC(=O)CCC(=O)OCc2cn(-c3ccnc4cc(Cl)ccc34)nn2)O[C@@H]2O[C@]3(C)CC[C@H]4[C@H](C)CC[C@@H]1[C@@]24OO3 (racemic) |  |  | 0.0053 | 0.0018 | 0.0042 | 
O=C(c1ccc(Nc2nccc(NCCCCNc3ccnc4cc(Cl)ccc34)n2)cc1)N1CCCC1 | 0.032 | 0.033 |  |  |  | 
C#CCCCN(CCNc1ccnc2cc(Cl)ccc12)C(=O)CCC(=O)O[C@@H]1O[C@@H]2O[C@]3(C)CC[C@H]4[C@H](C)CC[C@@H]([C@H]1C)[C@@]24OO3 |  |  | 0.0035 | 0.0013 | 0.0016 | 
C[C@H]1[C@@H](OCCCc2cn(-c3cccc4cc(Cl)ccc34)nn2)O[C@@H]2O[C@]3(C)CC[C@H]4[C@H](C)CC[C@@H]1[C@@]24OO3 |  |  | 0.0094 | 0.0038 | 0.0051 | 
Cc1nc(-c2ccccc2)c(-c2ccccc2)c2cc(-c3cn(CCOC(=O)CCC(=O)O[C@@H]4O[C@@H]5O[C@]6(C)CC[C@H]7[C@H](C)CC[C@@H]([C@H]4C)[C@@]57OO6)nn3)ccc12 |  |  | 0.0053 | 0.0033 | 0.0048 | 
Cc1cc(Nc2ccc(C(=O)N3CCSCC3)cc2)nc(NCCCCNc2ccnc3cc(Cl)ccc23)n1 | 0.032 | 0.033 |  |  |  | 
Cc1cc(NCCCNc2ccnc3cc(Cl)ccc23)nc(Nc2ccc(C(=O)N3CCCCC3)cc2)n1 | 0.032 | 0.033 |  |  |  | 
Cc1cc(NCCCCCCNc2ccnc3cc(Cl)ccc23)nc(Nc2ccc(C(=O)N3CCOCC3)cc2)n1 | 0.032 | 0.033 |  |  |  | 
O=C(c1ccc(Nc2nccc(NCCCNc3ccnc4cc(Cl)ccc34)n2)cc1)N1CCOCC1 | 0.032 | 0.033 |  |  |  | 
O=C(c1ccc(Nc2nccc(NCCCNc3ccnc4cc(Cl)ccc34)n2)cc1)N1CCCC1 | 0.032 | 0.033 |  |  |  | 
